How the values were obtained:
[1] = test system: Rattus norvegicus; test: Induction of luteinizing hormone release in immature male rat at 100 ng, sc measured after 15 mins to 6 hrs post dose by RIA relative to LH-RH
[2] = test system: Rattus norvegicus; test: Induction of FSH release in immature male rat at 100 ng, sc measured after 15 mins to 6 hrs post dose by RIA relative to LH-RH
[3] = test system: Rattus norvegicus; test: Induction of luteinizing hormone release in ovariectomized estrogen/progesterone-treated rat at 5 ng, sc measured at 60 mins post dose by RIA (reference value: 6.0+/- 0.4 ng/ml); format: functional
[4] = test system: Rattus norvegicus; test: Induction of luteinizing hormone release in ovariectomized estrogen/progesterone-treated rat at 1 ng, sc measured at 30 mins post dose by RIA (reference value: 5.3 +/- 1.5 ng/ml); format: functional
[5] = test system: Rattus norvegicus; test: Induction of luteinizing hormone release in ovariectomized estrogen/progesterone-treated rat at 5 ng, sc measured at 30 mins post dose by RIA (reference value: 5.3 +/- 1.5 ng/ml); format: functional
[6] = test system: Rattus norvegicus; test: Induction of luteinizing hormone release in ovariectomized estrogen/progesterone-treated rat at 1 ng, sc measured at 60 mins post dose by RIA (reference value: 6.0+/- 0.4 ng/ml); format: functional
[7] = test system: Rattus norvegicus; test: Induction of luteinizing hormone release in ovariectomized estrogen/progesterone-treated rat at 10 ng, sc measured at 60 mins post dose by RIA (reference value: 6.0+/- 0.4 ng/ml); format: functional
[8] = test system: Rattus norvegicus; test: Induction of luteinizing hormone release in ovariectomized estrogen/progesterone-treated rat at 50 ng, sc measured at 60 mins post dose by RIA (reference value: 6.0+/- 0.4 ng/ml); format: functional
[9] = test system: Rattus norvegicus; test: Induction of luteinizing hormone release in ovariectomized estrogen/progesterone-treated rat at 50 ng, sc measured at 30 mins post dose by RIA (reference value: 5.3 +/- 1.5 ng/ml); format: functional
[10] = test system: Rattus norvegicus; test: Induction of luteinizing hormone release in ovariectomized estrogen/progesterone-treated rat at 100 ng, sc measured after 30 mins post dose by RIA relative to LH-RH; format: functional
[11] = test system: Rattus norvegicus; test: Induction of luteinizing hormone release in ovariectomized estrogen/progesterone-treated rat at 10 ng, sc measured at 30 mins post dose by RIA (reference value: 5.3 +/- 1.5 ng/ml); format: functional

SMILES	Ratio [1]	Ratio [2]	further results
CC(C)C[C@H](NC(=O)[C@@H](C)NC(=O)[C@H](Cc1ccc(O)cc1)NC(=O)[C@H](CO)NC(=O)[C@H](Cc1c[nH]c2ccccc12)NC(=O)[C@H](Cc1cnc[nH]1)NC(=O)[C@@H]1CCC(=O)N1)C(=O)N[C@@H](CCCNC(=N)N)C(=O)N1CCC[C@H]1C(=O)NCC(N)=O	7	13	
CC(C)C[C@H](NC(=O)[C@@H](Cc1c[nH]c2ccccc12)NC(=O)[C@H](Cc1ccc(O)cc1)NC(=O)[C@H](CO)NC(=O)[C@H](Cc1c[nH]c2ccccc12)NC(=O)[C@H](Cc1c[nH]cn1)NC(=O)[C@@H]1CCC(=O)N1)C(=O)N[C@@H](CCCNC(=N)N)C(=O)N1CCC[C@H]1C(=O)NCC(N)=O [TRIPTORELIN]	13	21	
CCNC(=O)[C@@H]1CCCN1C(=O)[C@H](CCCNC(=N)N)NC(=O)[C@H](CC(C)C)NC(=O)[C@@H](CC(C)C)NC(=O)[C@H](Cc1ccc(O)cc1)NC(=O)[C@H](CO)NC(=O)[C@H](Cc1c[nH]c2ccccc12)NC(=O)[C@H](Cc1c[nH]cn1)NC(=O)[C@@H]1CCC(=O)N1 [LEUPROLIDE]	15	11	
CC(C)C[C@H](NC(=O)CNC(=O)[C@H](Cc1ccc(O)cc1)NC(=O)[C@H](CO)NC(=O)[C@H](Cc1c[nH]c2ccccc12)NC(=O)[C@H](Cc1cnc[nH]1)NC(=O)[C@@H]1CCC(=O)N1)C(=O)N[C@@H](CCCNC(=N)N)C(=O)N1CCC[C@H]1C(=O)NCC(N)=O [GONADORELIN]			Activity [3]: 15.4 ng/mL; Activity [4]: 24.5 ng/mL; Activity [5]: 47 ng/mL; Activity [6]: 9.6 ng/mL
CC(C)C[C@H](NC(=O)[C@@H](C)N(C)C(=O)[C@H](Cc1ccc(O)cc1)NC(=O)[C@H](CO)NC(=O)[C@H](Cc1c[nH]c2ccccc12)NC(=O)[C@H](Cc1cnc[nH]1)NC(=O)[C@@H]1CCC(=O)N1)C(=O)N[C@@H](CCCNC(=N)N)C(=O)N1CCC[C@H]1C(=O)NCC(N)=O			Activity [7]: 8.9 ng/mL; Activity [8]: 18.6 ng/mL; Activity [9]: 47.8 ng/mL; Ratio [10]: 0.1; Activity [11]: 22.9 ng/mL
CC(C)C[C@H](NC(=O)[C@@H](Cc1ccccc1)NC(=O)[C@H](Cc1ccc(O)cc1)NC(=O)[C@H](CO)NC(=O)[C@H](Cc1c[nH]c2ccccc12)NC(=O)[C@H](Cc1cnc[nH]1)NC(=O)[C@@H]1CCC(=O)N1)C(=O)N[C@@H](CCCNC(=N)N)C(=O)N1CCC[C@H]1C(=O)NCC(N)=O	10	20	
CCNC(=O)[C@@H]1CCCN1C(=O)[C@H](CCCNC(=N)N)NC(=O)[C@H](CC(C)C)NC(=O)[C@@H](Cc1c[nH]c2ccccc12)NC(=O)[C@H](Cc1ccc(O)cc1)NC(=O)[C@H](CO)NC(=O)[C@H](Cc1c[nH]c2ccccc12)NC(=O)[C@H](Cc1c[nH]cn1)NC(=O)[C@@H]1CCC(=O)N1 [DESLORELIN]	7	6	
CC(C)C[C@H](NC(=O)[C@@H](CCC(=O)O)NC(=O)[C@H](Cc1ccc(O)cc1)NC(=O)[C@H](CO)NC(=O)[C@H](Cc1c[nH]c2ccccc12)NC(=O)[C@H](Cc1cnc[nH]1)NC(=O)[C@@H]1CCC(=O)N1)C(=O)N[C@@H](CCCNC(=N)N)C(=O)N1CCC[C@H]1C(=O)NCC(N)=O	1.8	1.5	
CCNC(=O)[C@@H]1CCCN1C(=O)[C@H](CCCNC(=N)N)NC(=O)[C@H](CC(C)C)NC(=O)[C@@H](Cc1ccccc1)NC(=O)[C@H](Cc1ccc(O)cc1)NC(=O)[C@H](CO)NC(=O)[C@H](Cc1c[nH]c2ccccc12)NC(=O)[C@H](Cc1cnc[nH]1)NC(=O)[C@@H]1CCC(=O)N1	8	7	

Reference: ChEMBL document CHEMBL3272022, “Analogs of luteinizing hormone-releasing hormone with increased biological activity produced by D-amino acid substitutions in position 6” (1976)
